In patent publication US20260124197A1, “NOVEL HETEROBICYCLIC COMPOUND FOR INHIBITING YAP-TEAD INTERACTION AND PHARMACEUTICAL COMPOSITION COMPRISING SAME” (priority 2022, published 2026):
pIC50: −log10 of the molar value.

How the values were obtained:
NCI-H226 cells = assay: Cell growth inhibition test (SRB); format: cell-based; details: Homo sapiens, 144 h; NCI-H226 mesothelioma cell line lacking the NF2 gene, cultured for 6 days, SRB test method
Experimental: Experimental Example 2: Cell Growth Inhibition Test
The synthetic compound was confirmed to inhibit cell growth in NCI-H226 cells. NCI-H226 is a mesothelioma cancer cell line lacking the NF2 gene, and was cultured in RPMI 1640 medium supplemented added with 10% FBS and 1% Penicillin/Streptomycin. Cultured cells were dispensed into 96-well plates at 0.7×10^3 cells/100 μl and cultured for 24 hours, then 100 μl of the test compound diluted to a 2× concentration were mixed into each well and cultured for 6 days. The SRB test method was used to measure cell growth inhibition, and the 50% inhibition value (GI50) for cell growth by the compound was calculated using GraphPad Prism 9.
If the GI50 value is less than 100 nM, it is indicated as A, and if it is 100 nM or more, it is indicated as B.

[1] = test system: TEAD transcriptional activity; assay: TEAD reporter activity inhibition test (luciferase reporter, MCF7 cell line); format: cell-based; details: Homo sapiens; TEAD (GTIIC) firefly luciferase reporter MCF7 cell line, 24 hours, ONE-Glo luminescence
Experimental: Experimental Example 1: TEAD Reporter Activity Inhibition Test
The ability of the synthetic compounds to inhibit TEAD target gene transcription was measured. This evaluation method measures the transcriptional activity of TEAD by measuring the luciferase luminescence expressed when TEAD binds to a target gene and activates transcription using the MCF7 cell line (BPS Bioscience, Inc., USA) in which a firefly luciferase reporter gene has been introduced into the specific binding structure of TEAD, GTIIC (5′-ACATTCCA-3′). Cell lines were cultured in MEM medium added with 10% FBS, 1% Penicillin/Streptomycin, 1% non-essential amino acids, 10 μg/ml insulin, and 400 μg/ml Geneticin, and Geneticin was excluded when testing for inhibition of TEAD reporter activity. […] cells/100 μl were dispensed into a white 96-well plate and cultured for 6 hours. 50 μl of the test compound diluted to 3× concentration was mixed into each well. After 24 hours of cell culture, the luciferase signal was measured by luminescence using the ONE-Glo luciferase assay system (Promega, E6120) following the manufacturer's protocol. The 50% inhibition value (IC50) for TEAD transcriptional activity was calculated using GraphPad Prism 9.
If the IC50 value is less than 100 nM, it is indicated as A, if it is at least 100 nM but less than 500 nM, it is indicated as B, and if it is 500 nM or more, it is indicated as C.

Row | SMILES | GI50 (NCI-H226 cells) [µM] | pIC50 [1]
1 | CNS(=O)(=O)c1ccc2c(c1)c(-c1ccc(C)o1)cn2-c1ccc(C(F)(F)F)cc1 [Example 10, N-methyl-3-(5-methylfuran-2-yl)-1-(4-(trifluoromethyl)phenyl)-1H-indole-5-sulfonamide] | < 0.1 | > 7.00
2 | CCn1cnc(-c2cn(-c3ccc(C(F)(F)F)cc3)c3ccc(S(=O)(=O)NC)cc23)c1 [Example 11, 3-(1-ethyl-1H-imidazol-4-yl)-N-methyl-1-(4-(trifluoromethyl)phenyl)-1H-indole-5-sulfonamide] | < 0.1 | > 7.00
3 | CNS(=O)(=O)c1ccc2c(c1)c(-c1ccccc1F)cn2-c1ccc(C(F)(F)F)cc1 [Example 13, 3-(2-fluorophenyl)-N-methyl-1-(4-(trifluoromethyl)phenyl)-1H-indole-5-sulfonamide] | ≥ 0.1 | > 7.00
4 | CNS(=O)(=O)c1ccc2c(c1)c(-c1cn(C3CCC3)cn1)cn2-c1ccc(C(F)(F)F)cc1 [Example 16] | < 0.1 | > 7.00
5 | CNS(=O)(=O)c1ccc2c(c1)c(-c1ncccc1F)cn2-c1ccc(C(F)(F)F)cc1 [Example 20, 3-(3-fluoropyridin-2-yl)-N-methyl-1-(4-(trifluoromethyl)phenyl)-1H-indole-5-sulfonamide] | < 0.1 | > 7.00
6 | CNS(=O)(=O)c1ccc2c(c1)c(-c1cn(C3CC3)cn1)cn2-c1ccc(C(F)(F)F)cc1 [Example 28, 3-(1-cyclopropyl-1H-imidazol-4-yl)-N-methyl-1-(4-(trifluoromethyl)phenyl)-1H-indole-5-sulfonamide] | < 0.1 | > 7.00
7 | CNS(=O)(=O)c1ccc2c(c1)c(-c1ccco1)cn2-c1ccc(C(F)(F)F)cc1 [Example 31, 3-(furan-2-yl)-N-methyl-1-(4-(trifluoromethyl)phenyl)-1H-indole-5-sulfonamide] | < 0.1 | > 7.00
8 | CNS(=O)(=O)c1ccc2c(c1)c(-c1cnco1)cn2-c1ccc(C(F)(F)F)cc1 [Example 41, N-methyl-3-(oxazol-5-yl)-1-(4-(trifluoromethyl)phenyl)-1H-indole-5-sulfonamide] |  | 6.30 to 7.00
9 | CNS(=O)(=O)c1cnc2c(c1)c(-c1cn(C3CC3)cn1)cn2-c1ccc(C(F)(F)F)cc1 [Example 43, 3-(1-cyclopropyl-1H-imidazol-4-yl)-N-methyl-1-(4-(trifluoromethyl)phenyl)-1H-pyrrolo[2,3-b]pyridine-5-sulfonamide] | < 0.1 | > 7.00
10 | CNS(=O)(=O)c1ccc2c(c1)c(-c1cn(CC(=O)N(C)C)cn1)cn2-c1ccc(C(F)(F)F)cc1 [Example 47, N,N-dimethyl-2-(4-(5-(N-methylsulfamoyl)-1-(4-(trifluoromethyl)phenyl)-1H-indol-3-yl)-1H-imidazole-1-yl) acetamide] |  | ≤ 6.30

The remaining lines, values ahead:

Row | GI50 (NCI-H226 cells) [µM] | pIC50 [1] | SMILES
11 | < 0.1 | > 7.00 | CNS(=O)(=O)c1ccc2c(c1)c(-c1cn(C)cn1)cn2-c1ccc(C(F)(F)F)cc1 [Example 2, N-methyl-3-(1-methyl-1H-imidazol-4-yl)-1-(4-(trifluoromethyl)phenyl)-1H-indole-5-sulfonamide]
12 | < 0.1 | > 7.00 | CNS(=O)(=O)c1ccc2c(c1)c(-c1ccccn1)cn2-c1ccc(C(F)(F)F)cc1 [Example 8, N-methyl-3-(pyridin-2-yl)-1-(4-(trifluoromethyl)phenyl)-1H-indole-5-sulfonamide]
13 | < 0.1 | > 7.00 | CNS(=O)(=O)c1ccc2c(c1)c(-c1ccoc1)cn2-c1ccc(C(F)(F)F)cc1 [Example 23, 3-(furan-3-yl)-N-methyl-1-(4-(trifluoromethyl)phenyl)-1H-indole-5-sulfonamide]
14 | < 0.1 | > 7.00 | CNS(=O)(=O)c1ccc2c(c1)c(-c1cnc(C)o1)cn2-c1ccc(C(F)(F)F)cc1 [Example 32, N-methyl-3-(2-methyloxazol-5-yl)-1-(4-(trifluoromethyl)phenyl)-1H-indole-5-sulfonamide]
15 | < 0.1 | > 7.00 | CNS(=O)(=O)c1ccc2c(c1)c(-c1cn(CCOC)cn1)cn2-c1ccc(C(F)(F)F)cc1 [Example 38, 3-(1-(2-methoxyethyl)-1H-imidazol-4-yl)-N-methyl-1-(4-(trifluoromethyl)phenyl)-1H-indole-5-sulfonamide]
16 |  | > 7.00 | CNS(=O)(=O)c1ccc2c(c1)c(-c1cn(C)cn1)cn2-c1ccc(C(C)(C)C)cc1 [Example 40, 1-(4-(t-butyl)phenyl)-N-methyl-3-(1-methyl-1H-imidazol-4-yl)-1H-indole-5-sulfonamide]
17 | < 0.1 | > 7.00 | CNS(=O)(=O)c1ccc2c(c1)c(-c1cn(C3CC3)cn1)cn2-c1ccc(C(F)(F)F)cc1F [Example 42, 3-(1-cyclopropyl-1H-imidazol-4-yl)-1-(2-fluoro-4-(trifluoromethyl)phenyl)-N-methyl-1H-indole-5-sulfonamide]
18 | < 0.1 | > 7.00 | CNS(=O)(=O)c1ccc2c(c1)c(-c1cn(C3CC3)cn1)nn2-c1ccc(C(F)(F)F)cc1 [Example 44, 3-(1-cyclopropyl-1H-imidazol-4-yl)-N-methyl-1-(4-(trifluoromethyl)phenyl)-1H-indazol-5-sulfonamide]
19 |  | > 7.00 | CNS(=O)(=O)c1ccc2c(c1)c(-c1cn3c(n1)CCC3)cn2-c1ccc(C(F)(F)F)cc1 [Example 45, 3-(6,7-dihydro-5H-pyrrolo[1,2-a]imidazol-2-yl)-N-methyl-1-(4-(trifluoromethyl)phenyl)-1H-indole-5-sulfonamide]
20 |  | > 7.00 | CNS(=O)(=O)c1ccc2c(c1)c(N1CC(F)C1)cn2-c1ccc(C(F)(F)F)cc1 [Example 46, 3-(3-fluoroazetidin-1-yl)-N-methyl-1-(4-(trifluoromethyl)phenyl)-1H-indole-5-sulfonamide]
21 |  | 6.30 to 7.00 | CNS(=O)(=O)c1ccc2c(c1)c(-c1cn(CCS(C)(=O)=O)cn1)cn2-c1ccc(C(F)(F)F)cc1 [Example 48, N-methyl-3-(1-(2-(methylsulfonyl)ethyl)-1H-imidazol-4-yl)-1-(4-(trifluoromethyl)phenyl)-1H-indole-5-sulfonamide]
